Laboratory results taken from US20190201419A1, “COMPOUND AND METHOD FOR THE TREATMENT AND DIAGNOSIS OF NEURODEGENERATIVE CONDITIONS” (Swansea University, priority 2013, published 2019).

Assays:
abca1 = abca1 expression in zebrafish embryos; format: in vivo; details: 10 μM
Procedure: (§1) Quantitative PCR, Total RNA was extracted from SN4741. cells and zebrafish treated with the compounds of interest using the RNeasy Mini Kit (Qiagen), 1 μg was treated with RQ1 RNase-free DNase (Promega) and reverse transcribed using SuperScript II Reverse Transcriptase (invitrogen) and random primers (invitrogen) (RT+reaction). Parallel reactions without reverse transcriptase enzyme were done as a control (RT−reaction), and Sybergreen real-time quantitative PCR assays were performed. Expression levels were obtained by normalization with the Value of the housekeeping gene encoding actin obtained for every sample in parallel assays.
Zebrafish Strain and Maintenance Zebrafish were raised on a 14/10 h day/night cycle and were kept at 28.5 ° C. Islet-1:GFP transgenic embryos were obtained via natural spawning and staged in hours or days post fertilization (hpf and dpt) according to Kimmel et al). Embryos older than 24 hpf were treated with 0.03% phenylthiourea (PTU) to inhibit pigmentation. […] Immunocytochemistry was performed using an anti-GFP antibody and fluorescence was viewed and photographed using a Zeiss Axioplan compound microscope and a Zeiss Axiocam digital camera.

[1] = tested on: Abca1, Abcg1 and Srebf1 transcript levels; experiment: Quantitative PCR of Lxr target genes in SN4741 cells; format: cell-based, mouse; details: 3 h
Procedure: as §1

Lxrβ-LBD = target: T1, Lxrβ-LBD (Homo sapiens, UniProt P55055); experiment: Lanthascreen TR-FRET Lxrβ coactivator assay; format: binding
T1 construct: the Lxrβ-LBD tagged with glutathione-S-transferase (GST); purchased Invitrogen
T1 sequence (P55055 222-460 limits assumed): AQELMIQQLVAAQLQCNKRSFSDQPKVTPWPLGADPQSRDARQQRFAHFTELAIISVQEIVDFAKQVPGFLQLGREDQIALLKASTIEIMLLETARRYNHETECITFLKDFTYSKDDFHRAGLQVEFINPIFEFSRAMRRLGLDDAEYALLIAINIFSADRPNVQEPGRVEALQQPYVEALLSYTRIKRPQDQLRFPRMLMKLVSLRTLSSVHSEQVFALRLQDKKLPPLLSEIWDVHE
Source text: Lxrβ Ligand Binding Assay. For Lxrβ ligand binding activity measurement, the applicants used the Lanthascreen™ TR-FRET Lxrβ Coactivator Assay (Invitrogen). The assay uses a terbium (Tb)-labeled anti-GST antibody, a fluorescein-labeled coactivator peptide and the Lxrβ-LBD tagged with glutathione-S-transferase (GST). Binding of the agonist/ligand to Lxrβ-LBD causes a conformational change that result in an increase in the affinity of the Lxrβ for the coactivator peptide. The close proximity of the fluorescently labeled coactivator peptide to the Tb-labeled antibody causes an increase in the TR-FRET signal intensity. The TR-FRET ratio of 520/495 was calculated using a Victor multi label reader with an excitation wavelength of 340 nm and emission wavelengths of 520 nm and 495 nm, The activational capacity of potential ligands was tested in a […] polypropylene plate, following the manufacturer's protocol.

Islet-1 = Islet-1 expression in Tg[Isl1:GFP] zebrafish embryos; format: in vivo; details: 10 μM
zebrafish embryos = experiment: Survival of transgenic zebrafish embryos on compound exposure; format: in vivo
Procedure: Zebrafish Strain and Maintenance Zebrafish were raised on a 14/10 h day/night cycle and were kept at 28.5 ° C. Islet-1:GFP transgenic embryos were obtained via natural spawning and staged in hours or days post fertilization (hpf and dpt) according to Kimmel et al). Embryos older than 24 hpf were treated with 0.03% phenylthiourea (PTU) to inhibit pigmentation. MO injections were performed using splice site specific zebrafish lxi MO MO injected embryos were immediately dechorionated and transferred to a 96 well plate and exposed to dimethyl sulfoxide (DMSO) treated or ligand treated medium. Compound Exposure. Islet-1:GFP embryos were collected by natural mating and immediately (at 1 cell stage) dechorionated and transferred to a 96 well plate. Each of the compounds tested were obtained as 10 mM stock and diluted in embryo medium to a final concentration of 10 μM, and 200 μL was added to each well. DMSO or propan-2-ol treated embryo medium was taken as control. Ligand solutions were replaced every 12 h with fresh ligand solution prepared in PTU treated embryo medium. Embryos were collected at 48 hpf, fixed for 4 h at room temperature with 4% paraformaldehyde and then washed and kept in PBST. Immunocytochemistry was performed using an anti-GFP antibody and fluorescence was viewed and photographed using a Zeiss Axioplan compound microscope and a Zeiss Axiocam digital camera.

CC(CCC[C@@H](C)[C@H]1CC[C@H]2[C@@H]3[C@H](O)C=C4C[C@@H](O)CC[C@]4(C)[C@H]3CC[C@]12C)C(=O)O (stereo partly drawn) [3β,7α-diHCA, 3β,7α-dihydroxycholest-5-en-26-oic acid] was tested, and the abca1 expression (abca1) was “enhanced expression of abca1”, the “Abca1, Abcg1 and Srebf1 transcript levels” value [1] was “increased transcripts levels to a similar degree as 22R-HC” and the “TR-FRET signal (coactivator recruitment to Lxrβ-LBD)” value (Lxrβ-LBD; dose response) was “induced FRET in a dose dependent manner to a higher degree than the other acids”. For the same compound, the “Islet-1 mRNA and protein level (qPCR, western blot)” value (Islet-1) was “accompanied by an increase in the level of Islet-1 mRNA and protein”, the Islet-GFP expression (Islet-1; embryos 48 hpf) was “increased Islet-GFP expression” and the “Number of Islet1+ cells in cranial nerves (III, IV, V, VII, X)” value (Islet-1; embryos 48 hpf) was “had no significant effect on the number of Islet1+cells”. The “Islet-GFP levels after lxr morpholino injection” value (Islet-1; lxr MO vs control scrambled MO) was “lxr MO injections abolished the in vivo increase in Islet-GFP levels”.

For CC(CCC[C@@H](C)[C@H]1CC[C@H]2[C@@H]3CC=C4C[C@@H](O)CC[C@]4(C)[C@H]3CC[C@]12C)C(=O)O (stereo partly drawn) [3β-HCA, 3β-hydroxycholest-5-en-26-oic acid], the “Abca1, Abcg1 and Srebf1 transcript levels” value [1] was “induced transcription, but to a lesser extent”, the “Competition with the effect of 3β,7α-diHCA in TR-FRET” value (Lxrβ-LBD; 3β,7α-diHCA at 10 μM plus increasing concentrations of competitor) was “the effect of 3β,7α-diHCA was reduced to that of the latter acids” and the “Competitor concentration giving significant difference from 10 μM 3β,7α-diHCA alone in TR-FRET” value (Lxrβ-LBD; p<0.05 vs 10 μM 3β,7α-diHCA) was ≥ 5. For the same compound, the “Toxic effect on survival of the fish” value (zebrafish embryos) was “had a deleterious toxic effect which impaired the survival of the fish”.
